The record followed here is US10954325B2, “Raft agents and their use in the development of polyvinylpyrrolidone grafted nanoparticles” (UNIVERSITY OF SOUTH CAROLINA, priority 2014, dated 2021).

The test system of assay [1] is MRSA-252, HA-MRSA, CA-MRSA and MSSA. Description: Disk diffusion assay, result stated over the tested strains together. The settings on record: when physically bound to the PVP grafted silica nanoparticles; against MRSA. In kind it is cell-based, Staphylococcus aureus. An excerpt: (§1) The PVP grafted nanoparticles were employed to non-covalently attach the antibiotic penicillin-G (PenG) and tested for activity against bacteria. Methicillin-resistant Staphylococcus aureus (MRSA)-252, HA-MRSA, CA-MRSA and methicillin-sensitive Staphylococcus aureus (MSSA) were selected as the target bacteria. A control group of free PenG with the same dose was used for the disk diffusion assay of PenG-nanoparticle complex. […] Without wishing to be bound by any particular theory, it is believed that the enhanced inhibition activity was due to the locally high concentrations of antibiotics physically attached to PVP grafted nanoparticles, which overwhelms the bacterial resistance. The small size PVP grafted nanoparticles with controllable surface attached polymer chain lengths offers a significant vehicle to restore antibiotics activities.
(§2) Bacteria Strains: MRSA 252 (ATCCBAA-1720); Staphylococcus aureus ATCC 29213 (community acquired-MRSA); Staphylococcus aureus ATCC BAA 1717 (hospital associated-MRSA); MSSA ATCC BAA 1718. These bacterial strains were grown at 37° C. in tryptic soy broth for 24 hours.
(§3) Preparation of Nanoparticle-PenG Complex: To prepare the nanoparticle-PenG complex, 15 μL of PVP grafted silica nanoparticles solution (26.65 mg/ml) and 1.85 mL DI water were mixed. 200 μL Penicillin G sodium salt aqueous solution (1 mg/mL) was added and incubated at 24° C. […]
(Agar diffusion results depend on both activity and mobility in agar.)

The subject of another assay is MRSA 252 (ATCCBAA-1720). Description: Disk diffusion assay, MRSA 252. In kind it is cell-based, Staphylococcus aureus. The following applies: at low doses.
Source text: as §1, §2, §3

With `CC1(C)S[C@@H]2[C@H](NC(=O)Cc3ccccc3)C(=O)N2[C@H]1C(=O)[O-].[Na+]` [free penicillin-G, penicillin-G], the “activity of antibiotic over MRSA” value in assay [1] is reported as “significantly increased”. In addition, the “inhibition activity (disk diffusion)” value with MRSA 252 (ATCCBAA-1720) is on record as “completely ineffective”.
